Data taken from paper PMC13266999, “Designing Antibiotics with Inherent Resistance to Efflux as a Strategy to Revive Discovery against Multidrug-Resistant Pathogens” (Journal of Medicinal Chemistry, 2026).
Values after ≈ are worked out from the molar mass of the structure shown. Like-named read-outs stand apart in the source and are kept apart here.

Test system: S. aureus
Test: MIC (microbroth dilution)
Type: cell-based, Staphylococcus aureus
Settings: for MIC: Staphylococcus aureus
Protocol: All bacteria were maintained on tryptic soy agar (TSA), except Streptococcus spp., which were maintained on Columbia agar plates containing 5% horse blood. […] Bacteria were grown to stationary phase in liquid culture overnight, with shaking at 200 rpm, before being back diluted to the relevant starting concentration for each assay below. MICs were measured by the microbroth dilution method. […] Absorbance at OD600 was read on a CLARIOstar spectrophotometer (BMG Labtech) and the MIC was defined as the minimum concentration of compound where no visible growth was detected. […] MICs were also performed in the presence of the outer membrane permeator, polymyxin b nonapeptide (PMBN) following the same MIC method but with the following variation. The 2-fold dilution series of compound was prepared as above, then 50 μL of PMBN at a final concentration of 30 μg/mL was added to relevant wells, while 50 μL/well of blank media was added to the remaining wells. Bacteria were then added at 50 μL/well for a starting concentration as above. […] The MICs were read and defined as above. All animal procedures were performed by the contract research organization Pharmacology Discovery Services Taiwan in accordance with the Guide for the Care and Use of Laboratory Animals. The procedures were approved by the Institutional Ethics Committee of Pharmacology Discovery Services Taiwan, Ltd. (approval no. AB127662), in compliance with animal welfare legislation in Taiwan.

[1] = ATCC9144, ATCC 9144, read-out: MIC
[2] = NCTC13277, NCTC 13277, read-out: MIC
[3] = NCTC13616, NCTC 13616, read-out: MIC

Structure (SMILES) | MIC [1] [µg/mL] | MIC [2] [µg/mL] | MIC [3] [µg/mL] | MIC (SA-1199, read-out: MIC) [µg/mL] | MIC (SA-1199B (NorA-overexpressing)) [µg/mL] | fold potentiation compared to levofloxacin (fluoroquinolone-resistant NCTC 13616 and NCTC 13277) | fold loss of activity compared to 46
CCn1cc(C(=O)O)c(=O)c2cc(F)c(N3CCNCC3)cc21 [Compound 2, norfloxacin, reference compound] | 2 (≈ 6.26 µM) | > 128 | > 128 | – | – | – | –
CCn1cc(C(=O)O)c(=O)c2cc(F)c(N3CCNCC3)nc21 [Compound 3, enoxacin, reference compound] | 2 (≈ 6.24 µM) | 128 (≈ 400 µM) | > 128 | – | – | – | –
CCn1cc(C(=O)O)c(=O)c2cc(F)c(N3CCN(Cc4cccc5ccccc45)CC3)cc21 [Compound 20, 1-Ethyl-6-fluoro-7-(4-(naphthalen-1-ylmethyl)piperazin-1-yl)-4-oxo-1,4-dihydroquinoline-3-carboxylic acid] | 1 (≈ 2.18 µM) | 2 (≈ 4.35 µM) | 2 (≈ 4.35 µM) | – | – | – | –
CCn1cc(C(=O)O)c(=O)c2cc(F)c(N3CCN(Cc4cccc5ccccc45)CC3)nc21 [Compound 21, 1-Ethyl-6-fluoro-7-(4-(naphthalen-1-ylmethyl)piperazin-1-yl)-4-oxo-1,4-dihydro-1,8-naphthyridine-3-carboxylic acid] | 0.5 to 1 (≈ 1.09 to 2.17 µM) | 2 to 4 (≈ 4.34 to 8.69 µM) | 2 to 8 (≈ 4.34 to 17.4 µM) | – | – | – | –
C[C@H]1COc2c(N3CCN(Cc4cccc5ccccc45)CC3)c(F)cc3c(=O)c(C(=O)O)cn1c23 [Compound 22, (S)-9-Fluoro-3-methyl-10-(4-(naphthalen-1-ylmethyl)piperazin-1-yl)-7-oxo-2,3-dihydro-7H-[1,4]oxazino[2,3,4-ij]quinoline-6-carboxylic acid] | 0.125 to 1 (≈ 0.256 to 2.05 µM) | 2 to 4 (≈ 4.1 to 8.2 µM) | 4 (≈ 8.2 µM) | 0.25 (≈ 0.513 µM) | 0.5 (≈ 1.03 µM) | – | –
O=C(O)c1cn(C2CC2)c2cc(N3CCN(Cc4ccc5ccccc5c4)CC3)c(F)cc2c1=O [Compound 23, 1-Cyclopropyl-6-fluoro-7-(4-(naphthalen-2-ylmethyl)piperazin-1-yl)-4-oxo-1,4-dihydroquinoline-3-carboxylic acid] | 0.125 (≈ 0.265 µM) | 2 (≈ 4.24 µM) | 2 (≈ 4.24 µM) | – | – | – | –
CCn1cc(C(=O)O)c(=O)c2cc(F)c(N3CCN(Cc4ccc5ccccc5c4)CC3)cc21 [Compound 24, 1-Ethyl-6-fluoro-7-(4-(naphthalen-2-ylmethyl)piperazin-1-yl)-4-oxo-1,4-dihydroquinoline-3-carboxylic acid] | 0.25 (≈ 0.544 µM) | 4 (≈ 8.7 µM) | 4 (≈ 8.7 µM) | – | – | – | –
O=C(O)c1cn(C2CC2)c2cc(N3CCN(Cc4ccccc4)CC3)c(F)cc2c1=O [Compound 25, 7-(4-Benzylpiperazin-1-yl)-1-cyclopropyl-6-fluoro-4-oxo-1,4-dihydro quinoline-3-carboxylic acid] | 0.125 to 0.25 (≈ 0.297 to 0.593 µM) | 32 (≈ 75.9 µM) | 16 to 32 (≈ 38 to 75.9 µM) | – | – | – | –
CCn1cc(C(=O)O)c(=O)c2cc(F)c(N3CCN(Cc4ccccc4)CC3)cc21 [Compound 26, 7-(4-Benzylpiperazin-1-yl)-1-ethyl-6-fluoro-4-oxo-1,4-dihydroquinoline-3-carboxylic acid] | 0.25 (≈ 0.611 µM) | 16 to 32 (≈ 39.1 to 78.2 µM) | 16 (≈ 39.1 µM) | – | – | – | –
O=C(O)c1cn(C2CC2)c2cc(N3CCN(Cc4cccc5cccnc45)CC3)c(F)cc2c1=O [Compound 27, 1-Cyclopropyl-6-fluoro-4-oxo-7-(4-(quinolin-8-ylmethyl)piperazin-1-yl)-1,4-dihydroquinoline-3-carboxylic acid] | 0.5 (≈ 1.06 µM) | 128 (≈ 271 µM) | 64 (≈ 135 µM) | 0.125 (≈ 0.265 µM) | 0.25 (≈ 0.529 µM) | – | –
CCn1cc(C(=O)O)c(=O)c2cc(F)c(N3CCN(Cc4cccc5cccnc45)CC3)cc21 [Compound 28, 1-Ethyl-6-fluoro-4-oxo-7-(4-(quinolin-8-ylmethyl)piperazin-1-yl)-1,4-dihydroquinoline-3-carboxylic acid] | 1 (≈ 2.17 µM) | 128 (≈ 278 µM) | 128 (≈ 278 µM) | – | – | – | –
O=C(O)c1cn(C2CC2)c2cc(N3CCN(Cc4cccc5c4CCCC5)CC3)c(F)cc2c1=O [Compound 29, 1-Cyclopropyl-6-fluoro-4-oxo-7-(4-((5,6,7,8-tetrahydronaphthalen-1-yl)methyl)piperazin-1-yl)-1,4-dihydroquinoline-3-carboxylic acid] | 0.25 to 1 (≈ 0.526 to 2.1 µM) | 1 to 2 (≈ 2.1 to 4.21 µM) | 1 (≈ 2.1 µM) | 0.5 (≈ 1.05 µM) | 0.5 (≈ 1.05 µM) | – | –
CCn1cc(C(=O)O)c(=O)c2cc(F)c(N3CCN(Cc4cccc5c4CCCC5)CC3)cc21 [Compound 30, 1-Ethyl-6-fluoro-4-oxo-7-(4-((5,6,7,8-tetrahydronaphthalen-1-yl)methyl)piperazin-1-yl)-1,4-dihydroquinoline-3-carboxylic acid] | 1 (≈ 2.16 µM) | 2 (≈ 4.31 µM) | 2 (≈ 4.31 µM) | 0.25 (≈ 0.539 µM) | 0.5 (≈ 1.08 µM) | – | –
CN(C)c1ccc(CN2CCN(c3cc4c(cc3F)c(=O)c(C(=O)O)cn4C3CC3)CC2)cc1 [Compound 31, 1-Cyclopropyl-7-(4-(4-(dimethylamino)benzyl)piperazin-1-yl)-6-fluoro-4-oxo-1,4-dihydroquinoline-3-carboxylic acid] | 0.06 to 0.125 (≈ 0.129 to 0.269 µM) | 16 to 32 (≈ 34.4 to 68.9 µM) | 8 to 16 (≈ 17.2 to 34.4 µM) | 0.125 (≈ 0.269 µM) | 0.25 (≈ 0.538 µM) | – | –
CCn1cc(C(=O)O)c(=O)c2cc(F)c(N3CCN(Cc4ccc(N(C)C)cc4)CC3)cc21 [Compound 32, 7-(4-(4-(Dimethylamino)benzyl)piperazin-1-yl)-1-ethyl-6-fluoro-4-oxo-1,4-dihydroquinoline-3-carboxylic acid] | 0.125 to 0.25 (≈ 0.276 to 0.552 µM) | > 32 | 16 to 32 (≈ 35.4 to 70.7 µM) | – | – | – | –
CCn1cc(C(=O)O)c(=O)c2cc(F)c(N3CCN(Cc4cccc5c4OCO5)CC3)cc21 [Compound 34, 7-(4-(Benzo[d][1,3]dioxol-4-ylmethyl)piperazin-1-yl)-1-ethyl-6-fluoro-4-oxo-1,4-dihydroquinoline-3-carboxylic acid] | 0.5 (≈ 1.1 µM) | > 32 | > 32 | – | – | – | –
O=C(O)c1cn(C2CC2)c2cc(N3CCN(Cc4ccc(F)c5ccccc45)CC3)c(F)cc2c1=O [Compound 35, 1-Cyclopropyl-6-fluoro-7-(4-((4-fluoronaphthalen-1-yl)methyl)piperazin-1-yl)-4-oxo-1,4-dihydroquinoline-3-carboxylic acid] | 4 (≈ 8.17 µM) | 8 (≈ 16.3 µM) | 4 (≈ 8.17 µM) | – | – | – | –
CCn1cc(C(=O)O)c(=O)c2cc(F)c(N3CCN(Cc4ccc(F)c5ccccc45)CC3)cc21 [Compound 36, 1-Ethyl-6-fluoro-7-(4-((4-fluoronaphthalen-1-yl)methyl)piperazin-1-yl)-4-oxo-1,4-dihydroquinoline-3-carboxylic acid] | 8 (≈ 16.8 µM) | 8 (≈ 16.8 µM) | 8 (≈ 16.8 µM) | – | – | – | –
O=C(O)c1cn(C2CC2)c2cc(N3CCN(Cc4cccc5ccsc45)CC3)c(F)cc2c1=O [Compound 37, 7-(4-(Benzo[b]thiophen-7-ylmethyl)piperazin-1-yl)-1-cyclopropyl-6-fluoro-4-oxo-1,4-dihydroquinoline-3-carboxylic acid] | < 0.125 | 2 (≈ 4.19 µM) | 2 (≈ 4.19 µM) | – | – | – | –
CCn1cc(C(=O)O)c(=O)c2cc(F)c(N3CCN(Cc4cccc5ccsc45)CC3)cc21 [Compound 38, 7-(4-(Benzo[b]thiophen-7-ylmethyl)piperazin-1-yl)-1-ethyl-6-fluoro-4-oxo-1,4-dihydroquinoline-3-carboxylic acid] | 0.25 (≈ 0.537 µM) | 2 (≈ 4.3 µM) | 2 (≈ 4.3 µM) | – | – | – | –
O=C(O)c1cn(C2CC2)c2cc(N3CCN(Cc4ccc(-c5ccccc5)cc4)CC3)c(F)cc2c1=O [Compound 39, 7-(4-([1,1’-Biphenyl]-4-ylmethyl)piperazin-1-yl)-1-cyclopropyl-6-fluoro-4-oxo-1,4-dihydroquinoline-3-carboxylic acid] | 1 (≈ 2.01 µM) | 2 (≈ 4.02 µM) | 2 (≈ 4.02 µM) | – | – | – | –
CCn1cc(C(=O)O)c(=O)c2cc(F)c(N3CCN(Cc4ccc(-c5ccccc5)cc4)CC3)cc21 [Compound 40, 7-(4-([1,1’-Biphenyl]-4-ylmethyl)piperazin-1-yl)-1-ethyl-6-fluoro-4-oxo-1,4-dihydroquinoline-3-carboxylic acid] | 2 (≈ 4.12 µM) | 4 (≈ 8.24 µM) | 2 (≈ 4.12 µM) | – | – | – | –
C[C@H]1COc2c(N3CC[C@H](Nc4ncccn4)C3)c(F)cc3c(=O)c(C(=O)O)cn1c23 [Compound 44, (S)-9-Fluoro-3-methyl-7-oxo-10-((S)-3-(pyrimidin-2-ylamino)pyrrolidin-1-yl)-2,3-dihydro-7H-[1,4]oxazino[2,3,4-ij]quinoline-6-carboxylic acid] | 0.25 (≈ 0.588 µM) | 8 (≈ 18.8 µM) | 8 (≈ 18.8 µM) | 0.25 (≈ 0.588 µM) | 0.25 (≈ 0.588 µM) | 2–4 fold | –
C[C@H]1COc2c(N3CC[C@@H](N)C3)c(F)cc3c(=O)c(C(=O)O)cn1c23 [Compound 45, (S)-10-((R)-3-Aminopyrrolidin-1-yl)-9-fluoro-3-methyl-7-oxo-2,3-dihydro-7H-[1,4]oxazino[2,3,4-ij]quinoline-6-carboxylic acid] | 0.25 (≈ 0.72 µM) | 32 (≈ 92.1 µM) | 32 (≈ 92.1 µM) | – | – | – | 32- to 64 fold
C[C@H]1COc2c(N3CC[C@@H](Nc4ncc(F)cn4)C3)c(F)cc3c(=O)c(C(=O)O)cn1c23 [Compound 47, (S)-9-Fluoro-10-((R)-3-((5-fluoropyrimidin-2-yl)amino)pyrrolidin-1-yl)-3-methyl-7-oxo-2,3-dihydro-7H-[1,4]oxazino[2,3,4-ij]quinoline-6-carboxylic acid] | ≤ 0.125 | 1 (≈ 2.26 µM) | 0.5 (≈ 1.13 µM) | – | – | – | –
